According to patent publication US20240150315A1, “BETA-2 ADRENORECEPTOR MODULATORS AND METHODS OF USING SAME” (University of Maryland, Baltimore, priority 2022, published 2024):
“Also recorded” adds a separate entry of the source.

Experiments:
[1] = test system: human precision-cut lung slices; assay: bronchodilation of methacholine-contracted human precision-cut lung slices; conditions: for effect on ISO-induced increase in airway lumen area (bronchodilation): 100 nM compound, methacholine 1 μM
Method: (§1) To further examine the effect of PAMs and NAMs on β-agonists-mediated regulation of bronchorelaxation in a physiologically-relevant model, human and murine precision-cut lung slices were used. […] Lung slices were treated with increasing concentrations of ISO plus either vehicle or 100 nM of compounds 1001, 1002, and 1003, and a change in airway lumen area was determined.
(§2) FVB mice expressing human β2AR in smooth muscle were used in this study. The protocol for animal experiments is approved by the Institutional Animal Care and Use Committee. Murine lungs were perfused with 4% low melting agarose, allowed to solidify at 4° C. for 1 h. For human airways, a small lobe was inflated with 2% low-melting-point agarose and cores of 8 mm in diameter were made. Both human and murine lungs were then sliced (˜250 μm thick) using an oscillating tissue slicer (OTS-5000, FHC Inc). Lung slices cultured for 48 h were treated with methacholine (MCh, 1 μM), and images of the airways were obtained before and 10 min after MCh stimulation using EVOS FL Auto (Life technologies, Waltham, MA) microscope. The lung slices were treated with ISO (1 nM-10 μM) with vehicle or AMs and images of the airways were captured at 10 min intervals for a total of 50 min. Images of airways were used to calculate the area of airways using Image J software (NIH). Data from lung slice experiments were plotted as a percentage of methacholine-induced decrease in airway area compared to baseline area.

human ASM cells = assay: collagen gel contraction assay with human ASM cells, histamine-induced contraction; format: cell-based; conditions: 10 μM histamine; for effect on ISO-mediated inhibition of histamine-induced contraction of human ASM cells: AMs 100 nM, 10 min pretreatment
Description: β-agonists are the drug of choice for management of acute bronchoconstriction in asthmatics, acting on the target ASM cells. The Gs-cAMP-protein kinase A signaling axis effected by β-agonists inhibits contraction of ASM cells via multiple mechanisms. Therefore, it was examined whether the modulation of this signaling pathway by the discovered PAM/NAMs translated into functional differences in β2AR control of ASM contraction. In a standard gel-contraction assay, the collagen gels containing human ASM cells were incubated with different concentrations of ISO with vehicle or 100 nM AMs for 10 min, followed by stimulation with 10 μM histamine. The gel images were obtained before and after treatment with different agonists using an EVOS microscope, and a change in the gel area was calculated. Treatment with 10 μM histamine decreased the area of the gels, consistent with contraction of ASM cells. Pretreatment of gels with ISO inhibited the histamine-induced decrease in gel area (FIG. 14A).
100 μl of ASM cell suspension (5×10^5 cells/ml) containing type-I rat tail collagen (1.5 mg/ml) in F-12 medium was seeded onto a 96-well plate. After 24 h, collagen gels were loosened from the plate. The contraction was initiated by adding histamine (10 μM), with or without pretreatment with increasing concentration of ISO, with vehicle or AMs for 10 min prior to histamine. Images were obtained using an EVOS live tissue microscope before and at 10 min intervals for 40 min after the addition of histamine. Gel area was obtained for each of the mages using NIH ImageJ software. Data were expressed as percentage gel contraction and calculated using the following equation. [(T0 gel area−T10 gel area)/T0 gel area×100%].

[2] = test system: murine precision-cut lung slices; assay: bronchodilation of methacholine-contracted murine precision-cut lung slices; parameters: species or system FVB mice expressing human β2AR in smooth muscle; conditions: for effect on ISO-induced increase in airway lumen area (bronchodilation): 100 nM compound, methacholine 1 μM
Method: as §1, §2

β2AR [3] = assay: cell surface ELISA of β2AR expression (receptor internalization) in HEK293 cells; format: cell-based, human; conditions: 15 min; for effect on ISO-induced loss of cell surface expression of wild-type or mutant β2AR: AMs 100 nM with ISO 100 nM
Method: ISO induced receptor internalization was assessed via cell surface ELISA as previously described. Briefly, HEK-293 cells expressing β2AR were plated on 24-well plates. Cells were treated with 100 nM ISO with vehicle or 100 nM AMs for 15 minutes. Post treatment, cells were washed and fixed with 10% formalin-buffered saline for 10 minutes on ice, washed twice, and further processed using horseradish peroxidase-conjugated chicken polyclonal anti-HA antibody (Abcam). Cells were washed and incubated with 3,3′,5,5′-tetramethylbenzidine substrate and transferred to a 96-well plate containing sulfuric acid to stop the colorimetric reaction. FlexStation3 was used to measure absorbance at 450 nm. All values were normalized to basal value (no ISO/AMs) of wild-type receptor.

[4] = test system: R131K, R131A, Y219F, Y219S, Y219A, F282Y, F282W, and F282A mutant β2ARs; assay: ISO-induced cAMP generation in HEK293 cells expressing mutant β2AR; format: cell-based, human; conditions: AMs 100 nM, compared with wild-type β2AR
Method: To validate the identity of the computationally identified allosteric site, β2AR containing R131K, R131A, Y219F, Y219S, Y219A, F282Y, F282W, and F282A mutations was generated (FIG. 11A). Wild-type and mutant β2AR were expressed in HEK293 cells, and ISO-induced cAMP generation was measured in the presence or absence of the PAM compound 1001, or NAM compounds 1002 and 1003 (FIGS. 11B-E). The compounds were also tested at different concentrations of ISO in the cells expressing mutant β2AR (FIGS. 12A-D). The cAMP response was enhanced in cells expressing R131A and diminished in F282A mutant β2AR compared to cells expressing wild-type β2AR. […] Further, as expected, compound 1001 enhanced ISO-induced cAMP generation in cells expressing wild-type β2AR, and this effect was abolished in cells expressing mutant β2AR (FIGS. 11C-E, FIGS. 12B-D). Furthermore, NAM compounds 1002 and 1003 inhibited ISO-induced cAMP generation in wild-type β2AR expressing cells, and this inhibition was attenuated in cells expressing R131K, R131A, Y219F, Y219S, Y219A, F282Y, F282W, and F282A mutant β2ARs (FIGS. 11C-E, FIGS. 12B-D).
The human β2AR cDNA containing 3-HA tag at N-terminus subcloned into a pcDNA3.1 was obtained from www.cdna.org. Binding site residues PHE(F)282, TYR(Y)219, and ARG(R)131 were mutated to different amino acids using the QuikChange 11 XL Site-Directed Mutagenesis Kit (Agilent, Santa Clara, CA) per manufacturer's protocol. Mutations were confirmed by DNA sequencing. HEK293 cells were transfected with cDNA expressing (wild type or mutant; see below) human β2AR using Lipofectamine 3000 (Invitrogen, Waltham, MA) and used for studies within 36-48 h, or were maintained in media containing G418 at 500 μg/ml concentration. […]
(§3) Cells were grown to full confluency in 24-well plates, serum-starved for 24 h, and then incubated with 1 mM IBMX for 10 min. Cells were then incubated with ISO (1 nM to 10 μM) or β2AR modulators alone or concomitantly for 10 min and cAMP levels were measured by ELISA (Life Technologies, Waltham, MA) as described previously.

β2AR [5] = target: T1, β2AR (Homo sapiens, UniProt P07550); assay: β-arrestin2 recruitment to the β2AR, BRET assay in HEK293 cells; format: cell-based; conditions: AMs 100 nM, increasing concentrations of ISO
T1 construct: expressed in transfected cells; host or cells: HEK293
T1 sequence (P07550 whole entry): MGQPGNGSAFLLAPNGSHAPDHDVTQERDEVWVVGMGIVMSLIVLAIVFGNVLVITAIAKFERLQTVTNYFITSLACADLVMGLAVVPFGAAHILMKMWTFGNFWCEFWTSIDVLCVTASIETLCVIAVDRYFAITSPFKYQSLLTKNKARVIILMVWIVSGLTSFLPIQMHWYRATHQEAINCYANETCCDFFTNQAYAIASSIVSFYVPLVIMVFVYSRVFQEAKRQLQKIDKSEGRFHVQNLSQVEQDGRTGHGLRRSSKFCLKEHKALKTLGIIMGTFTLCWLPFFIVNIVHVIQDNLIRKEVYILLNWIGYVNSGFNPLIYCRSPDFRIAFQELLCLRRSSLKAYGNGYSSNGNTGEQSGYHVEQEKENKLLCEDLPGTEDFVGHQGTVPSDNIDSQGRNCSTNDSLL
Method: In addition to the canonical Gs signaling, the “balanced” b-agonists induce β-arrestin recruitment to the β2AR resulting in β2AR desensitization and activation of non-canonical signaling such as ERK1/2 signaling. […] Furthermore, the effect of AMs on ISO-induced phosphorylation of ERK1/2 was tested.
β-agonist-induced recruitment of β-arrestin to the β2AR was assessed by BRET assay as described previously. HEK293 cells were transfected with pcDNA-β-arrestin2-GFP10 and pcDNA3-β2AR-RlucII and after 48 h the cells were treated with increasing concentration of ISO and vehicle or 100 nM PAMs or NAMs followed by the addition of Coelenterazine 400a for 20 mins. Change in BRET was measured using a Tecan Infinite F500 microplate reader. BRET ratios were calculated by dividing the intensity of light emitted by the GFP10 acceptor by the total light emitted by the RLucII donor.

mice = assay: in vivo bronchodilation after MCh-induced bronchoconstriction by flexiVent; conditions: aerosol ISO with compound vs vehicle after MCh
Method: Compound 1001 augments isoproterenol (ISO)-induced bronchodilation in mice. Change in methacholine (MCh)-induced bronchoconstriction (lung resistance) upon aerosol treatment of mice with MCh followed by aerosol treatment of mice with ISO with vehicle or compound 1001 using flexiVent (Scireq) method was assessed.
In vivo lung function measurements. Lung mechanics are studied using flexiVent (Scireq) method. Briefly, anesthetized, intubated mice are ventilated with a tidal volume of 250 μl at 150 breaths/min. Mouse airways are exposed to increasing doses of methacholine (MCh; 1.56-50 mg/ml) using an in-line ultrasonic nebulizer. Following MCh-induced bronchoconstriction, mice are aerosolized with increasing concentrations of β-agonists (0.1-20 mg/ml)+AMs (100 nM). Airway resistance (Rn), tissue damping (G), and elastance (H) data (normalized to body weight) at individual doses of agonists are determined using the flexiWare software.

human wild type β2AR = target: T2, human wild type β2AR (Homo sapiens, UniProt P07550); assay: ISO-induced cAMP accumulation (ELISA) in HEK293 cells overexpressing human wild type β2AR; format: cell-based; conditions: AMs 100 nM, different concentrations of ISO
T2 construct: host or cells: HEK293
T2 sequence (P07550 whole entry): as above
Description: Activation of β2AR by orthosteric ligands leads to activation of Gαs subunit, which in turn activates AC to hydrolyze ATP to produce cAMP. To determine the biological activity of the AMs of the β2AR, HEK293 cells overexpressing human wild type β2AR were stimulated with different concentrations of test compounds and evaluated for cAMP production using a cAMP ELISA. […] These compounds were used in subsequent studies.
HEK293 cell lines were obtained from the American Type Culture Collection (ATCC) and maintained in Dulbecco's modified Eagle's medium (DMEM) as described previously.
The human β2AR cDNA containing 3-HA tag at N-terminus subcloned into a pcDNA3.1 was obtained from www.cdna.org. […] Mutations were confirmed by DNA sequencing. HEK293 cells were transfected with cDNA expressing (wild type or mutant; see below) human β2AR using Lipofectamine 3000 (Invitrogen, Waltham, MA) and used for studies within 36-48 h, or were maintained in media containing G418 at 500 μg/ml concentration.
as §3

| Structure (SMILES) | airway lumen area (bronchodilation) ([1]; ISO alone) | histamine-induced decrease in gel area (human ASM cells; ISO pretreatment alone) | airway lumen area (bronchodilation) ([2]; ISO alone) | cell surface expression of the β2AR (β2AR [3]; ISO 100 nM alone) | effect on ISO-induced increase in airway lumen area (bronchodilation) [1] | effect of the modulator on ISO-induced cAMP generation in cells expressing mutant β2AR [4] | effect on ISO-induced β-arrestin2 recruitment to the β2AR (change in BRET) (β2AR [5]) | effect on ISO-mediated inhibition of histamine-induced contraction of human ASM cells (human ASM cells) | effect on ISO-induced increase in airway lumen area (bronchodilation) [2] | effect on ISO-induced bronchodilation (lung resistance) (mice) | effect on ISO-induced cAMP accumulation (human wild type β2AR) | effect on ISO-induced loss of cell surface expression of wild-type or mutant β2AR (β2AR [3]) |
| --- | --- | --- | --- | --- | --- | --- | --- | --- | --- | --- | --- | --- |
| CC(C)NCC(O)c1ccc(O)c(O)c1 (centres unmarked) [ISO, isoproterenol, reference compound] | dose-dependent increase | inhibited | dose-dependent increase | loss of cell surface expression |  |  |  |  |  |  |  |  |
| OCCC1CN(Cc2ccccn2)CCN1C1CCCC1 (centres unmarked) [compound 1001] |  |  |  |  | significantly enhanced | abolished | did not alter | significantly enhanced | significantly enhanced | augments | most effective PAM; also recorded: enhanced | did not affect |
| Cc1nc2ccccc2nc1CN1CCN(C2CCCCC2)C(CCO)C1 (centres unmarked) [compound 1002] |  |  |  |  | mitigated | attenuated | did not alter | either slightly reduced or had no effect | mitigated |  | most effective NAMs; also recorded: inhibited | did not affect |
| Cc1cnn(-c2cc(N/N=C/c3ccccc3O)ncn2)c1 [compound 1003] |  |  |  |  | mitigated | attenuated | did not alter | either slightly reduced or had no effect | mitigated |  | most effective NAMs; also recorded: inhibited | did not affect |
